According to patent US4616009A, “Neuroleptic indole-3-carboxamide derivatives” (Yoshitomi Pharmaceutical Industries, Ltd., priority 1983, dated 1986):
Where two headings read alike, the source gives them in different places.

Key:
[1] = test system: apomorphine; test: Antiapomorphine activity in mice (spontaneous motility, Animex); assay type: in vivo, mice (male dd-strain); details: Mus musculus, 60 min before apomorphine hydrochloride 0.5 mg/kg s.c., dose for 50% suppression of spontaneous motility of control group over 20 min
Experimental: Antiapomorphine Activity in Mice
Groups of 5 male dd-strain mice were used. Test compounds were orally or intraperitoneally administered and 60 minutes thereafter, 0.5 mg/kg of apomorphine hydrochloride was subcutaneously administered. Immediately thereafter, spontaneous motility of the mice was measured with the aid of Animex (manufactured by Columbus Company, U.S.A.) for 20 minutes. The procedure was repeated three times with respective groups. The dose of test compounds required for 50% suppression of spontaneous motility of control group was graphically intraporated and determined as ED50 value.

[2] = reported in U.S. Pat. No. 3,527,761 / J. Med. Chem. 14, 1054 (1971); cited from earlier work
[3] = reported in U.S. Pat. No. 3,527,761 / J. Med. Chem. 14, 1054 (1971); cited from earlier work; remark: listed apart in the source
[4] = Acute toxicity in mice, oral administration; assay type: in vivo; details: 500 mg/kg, 5 days observation, male mice
Text: The acute toxicity of the compounds of the present invention was studied in 5 male mice weighing 30 to 45 g.

[5] = antihypertensive activity; details: according to studies of the present inventors
[6] = test system: apomorphine; test: apomorphine-antagonistic activity (studies of the present inventors); details: according to studies of the present inventors
[7] = prior art; cited from earlier work
[8] = reported; cited from earlier work

| SMILES | ED50 ([1]; po) | other results |
| --- | --- | --- |
| O=C(NC1CCN(Cc2ccccc2)CC1)c1c[nH]c2ccc(F)cc12 [Example 3, N-(1-benzyl-4-piperidyl)-5-fluoroindole-3-carboxamide] | 9.5 mg/kg |  |
| Cc1[nH]c2ccccc2c1C(=O)NC1CCN(Cc2ccccc2)CC1 [Example 7, N-(1-benzyl-4-piperidyl)-2-methylindole-3-carboxamide] | 8.7 mg/kg |  |
| Cc1[nH]c2ccc(F)cc2c1C(=O)NC1CCN(Cc2ccc(Cl)cc2)CC1 [Example 13, N-[1-(p-Chlorobenzyl)-4-piperidyl]-5-fluoro-2-methylindole-3-carboxamide] | 5.6 mg/kg |  |
| CCN1CCCC1CNC(=O)c1c(C)[nH]c2ccc(F)cc12 (stereo not shown) [Example 10, N-(1-Ethyl-2-pyrrolidinylmethyl)-5-fluoro-2-methylindole-3-carboxamide] |  | ED50 ([1]; ip): 10 mg/kg |
| Cc1c(C(=O)NC2CCN(Cc3ccccc3)CC2)c2cc(F)ccc2n1C [Example 4, N-(1-benzyl-4-piperidyl)-5-fluoro-1,2-dimethylindole-3-carboxamide] | 27 mg/kg |  |
| O=C(NC1CCN(CCc2c[nH]c3ccccc23)CC1)c1c[nH]c2ccccc12 [3-{2-[4-(3-indolecarboxamido)-piperidino]ethyl}indole] |  | antihypertensive activity [2]: having antihypertensive; antihistaminic activity [3]: antihistaminic activities |
| Cc1[nH]c2ccc(F)cc2c1C(=O)NC1CCN(Cc2ccc(F)cc2)CC1 [Example 14, 5-Fluoro-N-[1-(p-fluorobenzyl)-4-piperidyl]-2-methylindole-3-carboxamide] | 5.2 mg/kg |  |
| Cc1[nH]c2ccc(F)cc2c1C(=O)NC1CCN(Cc2cccc(Cl)c2)CC1 [Example 18, N-[1-(m-Chlorobenzyl)-4-piperidyl]-5-fluoro-2-methylindole-3-carboxamide] | 24 mg/kg |  |
| Cc1[nH]c2ccc(F)cc2c1C(=O)NC1CCN(Cc2ccccc2)CC1 [Example 2, N-(1-benzyl-4-piperidyl)-5-fluoro-2-methylindole-3-carboxamide] | 4.6 mg/kg | mortality (acute toxicity) [4]: All animals were survived |
| CCN1CCCC1CNC(=O)c1c(C)[nH]c2ccc(Cl)cc12 (stereo not shown) [Example 9, 5-Chloro-N-(1-ethyl-2-pyrrolidinylmethyl)-2-methylindole-3-carboxamide] | 30 mg/kg |  |
| O=C(NC1CCN(Cc2ccccc2)CC1)c1c[nH]c2ccccc12 [Example 8, N-(1-Benzyl-4-piperidyl)indole-3-carboxamide] | 7 mg/kg |  |
| Cc1[nH]c2ccc(F)cc2c1C(=O)NC1CCN(Cc2ccccc2)C1 (stereo not shown) [Example 12, N-(1-Benzyl-3-pyrrolidinyl)-5-fluoro-2-methylindole-3-carboxamide] | 5.6 mg/kg |  |
| O=C(NC1CCN(CCc2c[nH]c3ccccc23)CC1)c1ccccc1 [indoramin, 3-[2-(4-benzamido-1-piperidyl)-ethyl]indole] |  | antihypertensive activity [5]: relatively strong; antihypertensive activity [2]: stronger antihypertensive activity; apomorphine-antagonistic activity [6]: weak; antihistaminic activity [3]: exhibits antihistaminic activity; anticonvulsant activity [7]: anticonvulsant activity |
| CCN1CCCC1CNC(=O)c1c(C)[nH]c2ccccc12 (stereo not shown) [Example 1, N-(1-ethyl-2-pyrrolidinylmethyl)-2-methylindole-3-carboxamide] | 17 mg/kg |  |
| CCN1CCCC1CNC(=O)c1cc(S(N)(=O)=O)ccc1OC (stereo not shown) [Sulpiride, reference compound] | 330 mg/kg | bioavailability in oral administration [8]: low bioavailability |
